Here are results for 19 compounds from publication PMC8037033, “Synthesis and Rational Design of New Appended 1,2,3-Triazole-uracil Ensembles as Promising Anti-Tumor Agents via In Silico VEGFR-2 Transferase Inhibition” (Molecules, 2021).

Bounds are passed on as bounds.

For orientation: IC50 means the midpoint of a concentration-inhibition curve. Low readings indicate inhibition by little substance, high ones a need for much substance. As usually defined, the melting point is the temperature of the solid-liquid transition.

For one data set, the system named is HeLa tumor cells. The experiment in a line: MTT cytotoxicity assay, HeLa. The following applies: 72 h. It counts as cell-based, human. Here is the method:
(§1) The cell viability was measured by MTT colourimetric assay. The cell lines viz., HeLa (human cervical adenocarcinoma), HUH-7 (human hepatoma cancer cells) and NIH/3T3 (normal murine fibroblast cells) were supplemented with 10% fetal bovine serum and maintained in an environment of 5% CO2 at 37 °C temperature. Cell lines at a density of 2 × 10^3 cells/well were seeded onto 96 well plates for 16 h and maintained in DMEM culture media. Five different concentrations of synthesized ligands and 5-fluorouracil (except for normal cells) i.e., 0.1, 0.5, 1, 5 and 10 μM were treated against each cell line and incubated for 3 days at 37 °C [56]. Then, the solutions were discarded and an MTT reagent with a final concentration of 500 μg/mL was added to each well and plate and incubated for another 4–6 h. 200 μL of DMSO was added to solubilize purple precipitates (formazan product) and absorbance (optical density) was recorded at 570 nm on ELISA reader. IC50 values were calculated using dose-response data by applying the linear regression method. The experiments were done in triplicate for each concentration of ligand.
(Tetrazolium assays rely on reduction of a dye to a coloured formazan, in cell work by metabolically active cells.)

The test system of the next data set is HUH-7 tumor cells. In words: MTT cytotoxicity assay, HUH-7. It counts as cell-based. The following applies: Homo sapiens, 72 h. Here is the method: as §1
In a further data set the test system is NIH/3T3 normal cells. In words: MTT cytotoxicity assay, NIH/3T3 normal cells. It counts as cell-based, murine. The following applies: Mus musculus, NIH3T3, 72 h. Here is the method: as §1

With `Cn1c(=O)cc(Cl)n(Cc2cn(CCCN3C(=O)c4cccc5cccc(c45)C3=O)nn2)c1=O` [Compound 5n, 2-(3-(4-((6-Chloro-3-methyl-2,4-dioxo-3,4-dihydropyrimidin-1(2H)-yl)methyl)-1H-1,2,3-triazol-1-yl)propyl)-1H-benzo[de]isoquinoline-1,3(2H)-dione], the melting point is 96 to 98 °C. For the same compound, in the data set on HeLa tumor cells (Homo sapiens, HeLa), the IC50 was 9.6 ± 1.2 µM. The IC50 in the data set on HUH-7 tumor cells is over 10 µM. The compound further registered an IC50 with NIH/3T3 normal cells of over 10 µM.

`Cn1c(=O)cc(Cl)n(Cc2cn(Cc3nc(C4=Cc5ccccc5OC4)no3)nn2)c1=O` [Compound 5k, 1-((1-((3-(2H-Chromen-3-yl)-1,2,4-oxadiazol-5-yl)methyl)-1H-1,2,3-triazol-4-yl)methyl)-6-chloro-3-methylpyrimidine-2,4(1H,3H)-dione] gave a melting point of 125 to 128 °C. In the data set with HeLa tumor cells (Homo sapiens, HeLa), the IC50 is over 10 µM. Moreover, in the data set with HUH-7 tumor cells, the IC50 was over 10 µM. Also, the half-inhibitory concentration (IC50) in the data set on NIH/3T3 normal cells was over 10 µM.

Regarding `Cn1c(=O)cc(Cl)n(Cc2cn(CCCCn3cc(Cn4c(Cl)cc(=O)n(C)c4=O)nn3)nn2)c1=O` [Compound 5q, 1,1’-((Butane-1,4-diylbis(1H-1,2,3-triazole-1,4-diyl))bis(methylene))bis(6-chloro-3-methylpyrimidine-2,4(1H,3H)-dione)], the melting point lay in the range of 115 to 118 °C. In the data set with HeLa tumor cells (Homo sapiens, HeLa), the IC50 was over 10 µM. For the same compound, in the data set with HUH-7 tumor cells, the 50% inhibitory concentration (IC50) was over 10 µM. This compound came in with an IC50 in the data set with NIH/3T3 normal cells of over 10 µM.

`Cn1c(=O)cc(Cl)n(Cc2cn(CCCCCn3cc(Cn4c(Cl)cc(=O)n(C)c4=O)nn3)nn2)c1=O` [Compound 5r, 1,1’-((Pentane-1,5-diylbis(1H-1,2,3-triazole-1,4-diyl))bis(methylene))bis(6-chloro-3-methylpyrimidine-2,4(1H,3H)-dione)]: the melting point is 114 to 115 °C. For the same compound, in the data set with HeLa tumor cells (Homo sapiens, HeLa), half-maximal inhibition (IC50) was put at 9.6 ± 0.9 µM. In addition, in the data set with HUH-7 tumor cells, the IC50 is over 10 µM. Besides, in the data set with NIH/3T3 normal cells, the half-inhibitory concentration (IC50) was over 10 µM.

As to `Cn1c(=O)cc(Cl)n(Cc2cn(-c3ccccc3)nn2)c1=O` [Compound 5a, 6-Chloro-3-methyl-1-((1-phenyl-1H-1,2,3-triazol-4-yl)methyl)pyrimidine-2,4(1H,3H)-dione], the melting point was in the range of 120 to 121 °C. In the data set with HeLa tumor cells (Homo sapiens, HeLa), this compound returned a concentration for half-maximal inhibition (IC50) of 11.2 ± 0.1 µM. In the data set with HUH-7 tumor cells, this compound yielded an IC50 of over 10 µM. Moreover, the IC50 in the data set with NIH/3T3 normal cells is over 10 µM.

As to `Cc1cc(=O)oc2cc(OCCCCn3cc(Cn4c(Cl)cc(=O)n(C)c4=O)nn3)ccc12` [Compound 5m, 6-Chloro-3-methyl-1-((1-(4-((4-methyl-2-oxo-2H-chromen-7-yl)oxy)butyl)-1H-1,2,3-triazol-4-yl)methyl)pyrimidine-2,4(1H,3H)-dione], the melting point fell in the range of 145 to 148 °C. Besides, the IC50 in the data set on HeLa tumor cells (Homo sapiens, HeLa) is over 10 µM. In the data set with HUH-7 tumor cells, the IC50 is over 10 µM. This compound also gave an IC50 in the data set on NIH/3T3 normal cells of over 10 µM.

Compound `Cn1c(=O)cc(Cl)n(Cc2cn(Cc3ccccc3)nn2)c1=O` [Compound 5f, 1-((1-Benzyl-1H-1,2,3-triazol-4-yl)methyl)-6-chloro-3-methylpyrimidine-2,4(1H,3H)-dione] registered a melting point of 115 to 118 °C. This compound also had an IC50 in the data set on HeLa tumor cells (Homo sapiens, HeLa) of over 10 µM. The same compound yielded a concentration for half-maximal inhibition (IC50) with HUH-7 tumor cells of 10.8 ± 0.5 µM. This compound came in with an IC50 in the data set on NIH/3T3 normal cells of over 10 µM.

`CCCCCCCCn1cc(Cn2c(Cl)cc(=O)n(C)c2=O)nn1` [Compound 5p, 6-Chloro-3-methyl-1-((1-octyl-1H-1,2,3-triazol-4-yl)methyl)pyrimidine-2,4(1H,3H)-dione]: the IC50 with HeLa tumor cells (Homo sapiens, HeLa) is over 10 µM; in the data set on HUH-7 tumor cells it was over 10 µM; in the data set with NIH/3T3 normal cells, over 10 µM.

As to `O=c1[nH]cc(F)c(=O)[nH]1` [Compound 5-FU, 5-fluorouracil, reference compound], the IC50 in the data set with HeLa tumor cells (Homo sapiens, HeLa) worked out at 4.6 ± 0.2 µM; with HUH-7 tumor cells, 30 ± 2.5 µM.

As to `Cn1c(=O)cc(Cl)n(Cc2cn(-c3ccc(F)cc3)nn2)c1=O` [Compound 5b, 6-Chloro-1-((1-(4-fluorophenyl)-1H-1,2,3-triazol-4-yl)methyl)-3-methylpyrimidine-2,4(1H,3H)-dione], the melting point stood at 97 °C. The IC50 with HeLa tumor cells (Homo sapiens, HeLa) is over 10 µM. Moreover, the concentration for half-maximal inhibition (IC50) in the data set with HUH-7 tumor cells was over 10 µM. In addition, in the data set on NIH/3T3 normal cells, the IC50 is over 10 µM.

In the case of `CCCCCCn1cc(Cn2c(Cl)cc(=O)n(C)c2=O)nn1` [Compound 5o, 6-Chloro-1-((1-hexyl-1H-1,2,3-triazol-4-yl)methyl)-3-methylpyrimidine-2,4(1H,3H)-dione], the melting point lay in the range of 100 to 102 °C. This compound also showed an IC50 in the data set on HeLa tumor cells (Homo sapiens, HeLa) of over 10 µM. For the same compound, the IC50 in the data set on HUH-7 tumor cells is over 10 µM. In the data set with NIH/3T3 normal cells, this compound came in with an IC50 of over 10 µM.

Take `Cn1c(=O)cc(Cl)n(Cc2cn(-c3ccc([N+](=O)[O-])cc3)nn2)c1=O` [Compound 5d, 6-Chloro-3-methyl-1-((1-(4-nitrophenyl)-1H-1,2,3-triazol-4-yl)methyl)pyrimidine-2,4(1H,3H)-dione]: the melting point was in the range of 110 to 112 °C. In the data set on HeLa tumor cells (Homo sapiens, HeLa), this compound came in with an IC50 of over 10 µM. For the same compound, the IC50 with HUH-7 tumor cells was over 10 µM. In addition, in the data set with NIH/3T3 normal cells, the IC50 is over 10 µM.

With `Cn1c(=O)cc(Cl)n(Cc2cn(Cc3cccc(Oc4ccccc4)c3)nn2)c1=O` [Compound 5j, 6-Chloro-3-methyl-1-((1-(3-phenoxybenzyl)-1H-1,2,3-triazol-4-yl)methyl)pyrimidine-2,4(1H,3H)-dione], the melting point was 101 to 105 °C. In the data set with HeLa tumor cells (Homo sapiens, HeLa), this compound had an IC50 of 10 ± 1.5 µM. Besides, in the data set with HUH-7 tumor cells, the IC50 was over 10 µM. The compound further displayed an IC50 in the data set on NIH/3T3 normal cells of over 10 µM.

In the case of `Cn1c(=O)cc(Cl)n(Cc2cn(Cc3ccc(Br)cc3)nn2)c1=O` [Compound 5g, 1-((1-(4-Bromobenzyl)-1H-1,2,3-triazol-4-yl)methyl)-6-chloro-3-methylpyrimidine-2,4(1H,3H)-dione], the melting point was 138 to 140 °C. In the data set with HeLa tumor cells (Homo sapiens, HeLa), this compound gave an IC50 of over 10 µM. Further, the IC50 with HUH-7 tumor cells is over 10 µM. In the data set on NIH/3T3 normal cells, this compound registered an IC50 of over 10 µM.

With `COc1cccc2c1OCC(c1noc(Cn3cc(Cn4c(Cl)cc(=O)n(C)c4=O)nn3)n1)=C2` [Compound 5l, 6-Chloro-1-((1-((3-(8-methoxy-2H-chromen-3-yl)-1,2,4-oxadiazol-5-yl)methyl)-1H-1,2,3-triazol-4-yl)methyl)-3-methylpyrimidine-2,4(1H,3H)-dione], the melting point was in the range of 122 to 125 °C. Also, the IC50 in the data set on HeLa tumor cells (Homo sapiens, HeLa) is over 10 µM. The compound further registered an IC50 in the data set on HUH-7 tumor cells of over 10 µM. In the data set on NIH/3T3 normal cells, this compound showed an IC50 of over 10 µM.

`COc1ccc(-n2cc(Cn3c(Cl)cc(=O)n(C)c3=O)nn2)cc1` [Compound 5e, 6-Chloro-1-((1-(4-methoxyphenyl)-1H-1,2,3-triazol-4-yl)methyl)-3-methylpyrimidine-2,4-(1H,3H)-dione] returned a melting point of 145 to 148 °C. The compound also returned an IC50 in the data set on HeLa tumor cells (Homo sapiens, HeLa) of over 10 µM. In addition, the concentration for half-maximal inhibition (IC50) in the data set with HUH-7 tumor cells is over 10 µM. This compound also gave an IC50 with NIH/3T3 normal cells of over 10 µM.

For the compound `Cc1ccc(Cn2cc(Cn3c(Cl)cc(=O)n(C)c3=O)nn2)cc1` [Compound 5h, 6-Chloro-3-methyl-1-((1-(4-methylbenzyl)-1H-1,2,3-triazol-4-yl)methyl)pyrimidine-2,4(1H,3H)-dione], the IC50 in the data set with HeLa tumor cells (Homo sapiens, HeLa) was 4.5 ± 0.5 µM; with HUH-7 tumor cells, 7.7 ± 0.3 µM; in the data set with NIH/3T3 normal cells, over 10 µM.

On to `COc1cccc(Cn2cc(Cn3c(Cl)cc(=O)n(C)c3=O)nn2)c1` [Compound 5i, 6-Chloro-1-((1-(3-methoxybenzyl)-1H-1,2,3-triazol-4-yl)methyl)-3-methylpyrimidine-2,4(1H,3H)-dione], for which the melting point was in the range of 98 to 100 °C. The same compound registered an IC50 with HeLa tumor cells of over 10 µM. The compound also yielded an IC50 with HeLa tumor cells (Homo sapiens, HeLa) of 9 µM. In the data set on HUH-7 tumor cells, this compound gave an IC50 of 9 ± 0.8 µM. The 50% inhibitory concentration (IC50) with NIH/3T3 normal cells is over 10 µM.

In the case of `Cn1c(=O)cc(Cl)n(Cc2cn(-c3ccc(Cl)cc3)nn2)c1=O` [Compound 5c, 6-Chloro-1-((1-(4-chlorophenyl)-1H-1,2,3-triazol-4-yl)methyl)-3-methylpyrimidine-2,4(1H,3H)-dione], the melting point was determined as 100 °C. In addition, the 50% inhibitory concentration (IC50) with HeLa tumor cells (Homo sapiens, HeLa) is over 10 µM. The compound also had a 50% inhibitory concentration (IC50) with HUH-7 tumor cells of over 10 µM. Besides, the IC50 in the data set on NIH/3T3 normal cells was over 10 µM.
